ChEMBL document CHEMBL6120977, “Structure-Affinity-Pharmacokinetics Relationships of Novel 18F-Labeled 1,4-Diazepane Derivatives for Orexin 1 Receptor Imaging” (J Med Chem, 2024)
Values belong to the molecule of their own block, whether it stands above or below them.

How the values were obtained:
[1] = Biodistribution in male ddY mouse liver administered intravenously and measured at 30 mins postinjection by gamma counter analysis; format: ADME, organism-based; conditions: in vivo, iv, 0.5 h
[2] = Biodistribution in male ddY mouse lung administered intravenously and measured at 2 mins postinjection by gamma counter analysis; format: ADME, organism-based; conditions: in vivo, iv
[3] = Biodistribution in male ddY mouse intestine administered intravenously and measured at 10 mins postinjection by gamma counter analysis; format: ADME, organism-based; conditions: in vivo, iv
[4] = Biodistribution in male ddY mouse liver administered intravenously and measured at 10 mins postinjection by gamma counter analysis; format: ADME, organism-based; conditions: in vivo, iv
[5] = Biodistribution in male ddY mouse spleen administered intravenously and measured at 60 mins postinjection by gamma counter analysis; format: ADME, organism-based; conditions: in vivo, iv, 1 h
[6] = Biodistribution in male ddY mouse pancreas administered intravenously and measured at 60 mins postinjection by gamma counter analysis; format: ADME, organism-based; conditions: in vivo, iv, 1 h
[7] = Drug uptake in male ddY mouse brain at 41 kBq, iv pretreated with BTF for 10 mins followed by compound administration and measured after 10 mins by gamma counter analysis; format: ADME, organism-based; conditions: in vivo
[8] = Biodistribution in male ddY mouse brain administered intravenously and measured at 60 mins postinjection by gamma counter analysis; format: ADME, organism-based; conditions: in vivo, iv, 1 h
[9] = Biodistribution in male ddY mouse blood administered intravenously and measured at 10 mins postinjection by gamma counter analysis; format: ADME, organism-based; conditions: in vivo, iv
[10] = Biodistribution in male ddY mouse pancreas administered intravenously and measured at 2 mins postinjection by gamma counter analysis; format: ADME, organism-based; conditions: in vivo, iv
[11] = Biodistribution in male ddY mouse heart administered intravenously and measured at 2 mins postinjection by gamma counter analysis; format: ADME, organism-based; conditions: in vivo, iv
[12] = Biodistribution in male ddY mouse kidney administered intravenously and measured at 2 mins postinjection by gamma counter analysis; format: ADME, organism-based; conditions: in vivo, iv
[13] = Drug uptake in male ddY mouse locus ceruleus at 407 kBq, iv measured for 5 to 10 mins by PET/CT imaging analysis; format: ADME, organism-based; conditions: in vivo, time 5-10 min
[14] = Biodistribution in male ddY mouse kidney administered intravenously and measured at 60 mins postinjection by gamma counter analysis; format: ADME, organism-based; conditions: in vivo, iv, 1 h
[15] = Biodistribution in male ddY mouse bone administered intravenously and measured at 10 mins postinjection by gamma counter analysis; format: ADME, organism-based, Bone element; conditions: in vivo, iv
[16] = Biodistribution in male ddY mouse spleen administered intravenously and measured at 10 mins postinjection by gamma counter analysis; format: ADME, organism-based; conditions: in vivo, iv
[17] = Biodistribution in male ddY mouse pancreas administered intravenously and measured at 30 mins postinjection by gamma counter analysis; format: ADME, organism-based; conditions: in vivo, iv, 0.5 h
[18] = Biodistribution in male ddY mouse lung administered intravenously and measured at 60 mins postinjection by gamma counter analysis; format: ADME, organism-based; conditions: in vivo, iv, 1 h
[19] = Biodistribution in male ddY mouse lung administered intravenously and measured at 10 mins postinjection by gamma counter analysis; format: ADME, organism-based; conditions: in vivo, iv
[20] = Biodistribution in male ddY mouse kidney administered intravenously and measured at 30 mins postinjection by gamma counter analysis; format: ADME, organism-based; conditions: in vivo, iv, 0.5 h
[21] = Biodistribution in male ddY mouse intestine administered intravenously and measured at 60 mins postinjection by gamma counter analysis; format: ADME, organism-based; conditions: in vivo, iv, 1 h
[22] = Biodistribution in male ddY mouse liver administered intravenously and measured at 2 mins postinjection by gamma counter analysis; format: ADME, organism-based; conditions: in vivo, iv
[23] = Biodistribution in male ddY mouse stomach administered intravenously and measured per organ at 10 mins postinjection by gamma counter analysis; format: ADME, organism-based; conditions: in vivo, iv
[24] = Biodistribution in male ddY mouse bone administered intravenously and measured at 2 mins postinjection by gamma counter analysis; format: ADME, organism-based, Bone element; conditions: in vivo, iv
[25] = Biodistribution in male ddY mouse stomach administered intravenously and measured per organ at 60 mins postinjection by gamma counter analysis; format: ADME, organism-based; conditions: in vivo, iv, 1 h
[26] = Biodistribution in male ddY mouse brain administered intravenously and measured at 30 mins postinjection by gamma counter analysis; format: ADME, organism-based; conditions: in vivo, iv, 0.5 h
[27] = Biodistribution in male ddY mouse blood administered intravenously and measured at 2 mins postinjection by gamma counter analysis; format: ADME, organism-based; conditions: in vivo, iv
[28] = Biodistribution in male ddY mouse blood administered intravenously and measured at 60 mins postinjection by gamma counter analysis; format: ADME, organism-based; conditions: in vivo, iv, 1 h
[29] = Biodistribution in male ddY mouse stomach administered intravenously and measured per organ at 2 mins postinjection by gamma counter analysis; format: ADME, organism-based; conditions: in vivo, iv
[30] = Biodistribution in male ddY mouse pancreas administered intravenously and measured at 10 mins postinjection by gamma counter analysis; format: ADME, organism-based; conditions: in vivo, iv
[31] = Biodistribution in male ddY mouse liver administered intravenously and measured at 60 mins postinjection by gamma counter analysis; format: ADME, organism-based; conditions: in vivo, iv, 1 h
[32] = Biodistribution in male ddY mouse spleen administered intravenously and measured at 30 mins postinjection by gamma counter analysis; format: ADME, organism-based; conditions: in vivo, iv, 0.5 h
[33] = Biodistribution in male ddY mouse intestine administered intravenously and measured at 30 mins postinjection by gamma counter analysis; format: ADME, organism-based; conditions: in vivo, iv, 0.5 h
[34] = Biodistribution in male ddY mouse brain administered intravenously and measured at 2 mins postinjection by gamma counter analysis; format: ADME, organism-based; conditions: in vivo, iv
[35] = Biodistribution in male ddY mouse intestine administered intravenously and measured at 2 mins postinjection by gamma counter analysis; format: ADME, organism-based; conditions: in vivo, iv
[36] = Drug uptake in male ddY mouse hypothalamus at 407 kBq, iv measured for 5 to 10 mins by PET/CT imaging analysis; format: ADME, organism-based; conditions: in vivo, time 5-10 min
[37] = Biodistribution in male ddY mouse lung administered intravenously and measured at 30 mins postinjection by gamma counter analysis; format: ADME, organism-based; conditions: in vivo, iv, 0.5 h
[38] = Drug accumulation in male CD Sprague-Dawley rat hypothalamus assessed as increase in radioactivity at 40.1 kBq/ml incubated for 1 hrs in presence of BTF by autoradiography analysis; format: ADME, tissue-based
[39] = Biodistribution in male ddY mouse kidney administered intravenously and measured at 10 mins postinjection by gamma counter analysis; format: ADME, organism-based; conditions: in vivo, iv
[40] = Biodistribution in male ddY mouse stomach administered intravenously and measured per organ at 30 mins postinjection by gamma counter analysis; format: ADME, organism-based; conditions: in vivo, iv, 0.5 h
[41] = Biodistribution in male ddY mouse heart administered intravenously and measured at 10 mins postinjection by gamma counter analysis; format: ADME, organism-based; conditions: in vivo, iv
[42] = Biodistribution in male ddY mouse spleen administered intravenously and measured at 2 mins postinjection by gamma counter analysis; format: ADME, organism-based; conditions: in vivo, iv
[43] = Biodistribution in male ddY mouse blood administered intravenously and measured at 30 mins postinjection by gamma counter analysis; format: ADME, organism-based; conditions: in vivo, iv, 0.5 h
[44] = Biodistribution in male ddY mouse brain administered intravenously and measured at 10 mins postinjection by gamma counter analysis; format: ADME, organism-based; conditions: in vivo, iv
[45] = Drug accumulation in male CD Sprague-Dawley rat cortex assessed as increase in radioactivity at 40.1 kBq/ml incubated for 1 hrs in presence of BTF by autoradiography analysis; format: ADME, tissue-based
[46] = Biodistribution in male ddY mouse heart administered intravenously and measured at 30 mins postinjection by gamma counter analysis; format: ADME, organism-based; conditions: in vivo, iv, 0.5 h
[47] = Biodistribution in male ddY mouse bone administered intravenously and measured at 30 mins postinjection by gamma counter analysis; format: ADME, organism-based, Bone element; conditions: in vivo, iv, 0.5 h
[48] = Biodistribution in male ddY mouse bone administered intravenously and measured at 60 mins postinjection by gamma counter analysis; format: ADME, organism-based, Bone element; conditions: in vivo, iv, 1 h
[49] = Biodistribution in male ddY mouse heart administered intravenously and measured at 60 mins postinjection by gamma counter analysis; format: ADME, organism-based; conditions: in vivo, iv, 1 h
[50] = Drug accumulation in male CD Sprague-Dawley rat amygdala assessed as increase in radioactivity at 40.1 kBq/ml incubated for 1 hrs in presence of BTF by autoradiography analysis; format: ADME, tissue-based
[51] = molecular target: T1, Orexin/Hypocretin receptor type 1 (Homo sapiens, UniProt O43613); experiment: Displacement of [125I]Orexin A from recombinant human OX1R expressed in CHO-S cells by radioligand competition binding assay; format: cell-based
T1 sequence (O43613 whole entry): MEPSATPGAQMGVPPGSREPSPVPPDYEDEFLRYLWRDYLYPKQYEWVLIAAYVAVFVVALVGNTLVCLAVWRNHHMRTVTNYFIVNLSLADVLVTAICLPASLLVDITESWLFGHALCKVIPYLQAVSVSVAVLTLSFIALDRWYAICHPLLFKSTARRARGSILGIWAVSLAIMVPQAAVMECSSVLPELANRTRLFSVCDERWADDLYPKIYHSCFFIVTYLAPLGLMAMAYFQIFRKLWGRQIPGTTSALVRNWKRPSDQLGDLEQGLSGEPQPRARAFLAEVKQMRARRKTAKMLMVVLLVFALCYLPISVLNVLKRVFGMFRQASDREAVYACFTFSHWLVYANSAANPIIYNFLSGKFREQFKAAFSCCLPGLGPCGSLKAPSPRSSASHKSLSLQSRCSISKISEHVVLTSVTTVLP

Orexin receptor type 2 = molecular target: T2, Orexin receptor type 2 (Homo sapiens, UniProt O43614); experiment: Displacement of [125I]Orexin A from recombinant human OX2R expressed in CHO-S cells by radioligand competition binding assay; format: cell-based
T2 sequence (O43614 whole entry): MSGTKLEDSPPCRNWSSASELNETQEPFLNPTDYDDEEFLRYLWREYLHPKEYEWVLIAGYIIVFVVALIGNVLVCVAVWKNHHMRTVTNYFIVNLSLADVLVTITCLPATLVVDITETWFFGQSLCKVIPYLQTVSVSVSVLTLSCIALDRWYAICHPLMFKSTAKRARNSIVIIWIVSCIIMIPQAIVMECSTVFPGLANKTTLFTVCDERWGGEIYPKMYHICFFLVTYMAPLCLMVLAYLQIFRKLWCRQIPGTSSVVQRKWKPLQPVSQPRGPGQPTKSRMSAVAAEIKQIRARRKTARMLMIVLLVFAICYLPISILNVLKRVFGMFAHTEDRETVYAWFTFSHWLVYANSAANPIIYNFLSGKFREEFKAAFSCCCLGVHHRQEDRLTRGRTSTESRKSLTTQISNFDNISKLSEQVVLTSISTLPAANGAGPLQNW

Drug uptake [1]: 17 % ID/g | Drug uptake [2]: 8.48 % ID/g | Drug uptake [3]: 15.7 % ID/g | Drug uptake [4]: 28.6 % ID/g | Drug uptake [5]: 0.29 % ID/g | Drug uptake [6]: 0.61 % ID/g | Drug uptake [7]: Not_active | Drug uptake [8]: 0.07 % ID/g | Drug uptake [9]: 3.2 % ID/g | Drug uptake [10]: 7.16 % ID/g | Drug uptake [11]: 7.48 % ID/g | Drug uptake [12]: 9.76 % ID/g | Drug uptake [13]: Active | Drug uptake [14]: 1.84 % ID/g | Drug uptake [15]: 1.4 % ID/g | Drug uptake [16]: 1.87 % ID/g | Drug uptake [17]: 0.92 % ID/g | Drug uptake [18]: 1.17 % ID/g | Drug uptake [19]: 4.13 % ID/g | Drug uptake [20]: 3.99 % ID/g | Drug uptake [21]: 34.5 % ID/g | Drug uptake [22]: 16.2 % ID/g | Drug uptake [23]: 2.16 %ID | Drug uptake [24]: 2.69 % ID/g | Drug uptake [25]: 1.05 %ID | Drug uptake [26]: 0.17 % ID/g | Drug uptake [27]: 6.02 % ID/g | Drug uptake [28]: 0.64 % ID/g | Drug uptake [29]: 1.4 %ID | Drug uptake [30]: 3.1 % ID/g | Drug uptake [31]: 10.8 % ID/g | Drug uptake [32]: 0.66 % ID/g | Drug uptake [33]: 28 % ID/g | Drug uptake [34]: 2.98 % ID/g | Drug uptake [35]: 4.74 % ID/g | Drug uptake [36]: Active | Drug uptake [37]: 2.2 % ID/g | Drug uptake [38]: Not_active | Drug uptake [39]: 4.99 % ID/g | Drug uptake [40]: 2.39 %ID | Drug uptake [41]: 3.02 % ID/g | Drug uptake [42]: 3.26 % ID/g | Drug uptake [43]: 1.74 % ID/g | Drug uptake [44]: 0.82 % ID/g | Drug uptake [45]: Not_active | Drug uptake [46]: 1.51 % ID/g | Drug uptake [47]: 1.77 % ID/g | Drug uptake [48]: 1.87 % ID/g | Drug uptake [49]: 0.54 % ID/g | Drug uptake [50]: Not_active
SMILES: C[C@H]1CN(c2nc3ccccc3s2)CCCN1C(=O)c1cc([18F])ccc1-n1nccn1

IC50 [51]: 253 nM | IC50 (Orexin receptor type 2): 1410 nM
SMILES: COc1ccnc(N2CCC3(CCN(Cc4cn([11CH3])c5ccccc45)C(=O)C3)CC2)n1
